Laboratory results as given in publication PMC9434261, “Plant peptidoglycan precursor biosynthesis: Conservation between moss chloroplasts and Gram-negative bacteria” (Plant Physiology, 2022).
Square brackets hold non-standard residues; d marks the D form. Peptide text beside a SMILES is read from it.

Legend:
PaMurF = molecular target: T1, PaMurF (Pseudomonas aeruginosa, UniProt Q9EY48); experiment: coupled ADP-release assay, tripeptide made in situ by MurE; type: biochemical; conditions: with UDP-MurNAc-D,L-DAP tripeptide (made in situ by MurE) and ATP
T1 construct: gene murF; recombinant, overexpressed and purified as in Majce et al. 2013
T1 sequence (Q9EY48 1-458): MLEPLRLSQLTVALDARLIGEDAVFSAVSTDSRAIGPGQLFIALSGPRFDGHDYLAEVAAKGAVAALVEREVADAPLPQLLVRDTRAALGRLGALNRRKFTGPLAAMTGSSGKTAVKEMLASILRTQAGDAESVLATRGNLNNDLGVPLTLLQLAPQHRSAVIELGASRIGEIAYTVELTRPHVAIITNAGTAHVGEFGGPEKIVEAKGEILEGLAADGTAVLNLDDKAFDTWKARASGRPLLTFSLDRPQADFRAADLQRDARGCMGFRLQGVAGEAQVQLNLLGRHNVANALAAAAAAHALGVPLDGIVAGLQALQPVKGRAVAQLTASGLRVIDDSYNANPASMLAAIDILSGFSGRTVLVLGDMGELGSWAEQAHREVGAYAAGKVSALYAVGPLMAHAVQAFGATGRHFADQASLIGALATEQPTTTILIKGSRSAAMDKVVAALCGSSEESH

[1] = molecular target: T2, Streptococcus pneumoniae Pn16 MurE (Streptococcus pneumoniae, UniProt Q8CWQ5); experiment: coupled pyruvate kinase/lactate dehydrogenase ADP-release assay, A340; type: biochemical; conditions: 150 µM L-Lys, 375 µM UDP-MurNAc-dipeptide, ATP; 37 °C
T2 construct: recombinant, overexpressed and purified as in Blewett et al. 2004
T2 sequence (Q8CWQ5 1-481): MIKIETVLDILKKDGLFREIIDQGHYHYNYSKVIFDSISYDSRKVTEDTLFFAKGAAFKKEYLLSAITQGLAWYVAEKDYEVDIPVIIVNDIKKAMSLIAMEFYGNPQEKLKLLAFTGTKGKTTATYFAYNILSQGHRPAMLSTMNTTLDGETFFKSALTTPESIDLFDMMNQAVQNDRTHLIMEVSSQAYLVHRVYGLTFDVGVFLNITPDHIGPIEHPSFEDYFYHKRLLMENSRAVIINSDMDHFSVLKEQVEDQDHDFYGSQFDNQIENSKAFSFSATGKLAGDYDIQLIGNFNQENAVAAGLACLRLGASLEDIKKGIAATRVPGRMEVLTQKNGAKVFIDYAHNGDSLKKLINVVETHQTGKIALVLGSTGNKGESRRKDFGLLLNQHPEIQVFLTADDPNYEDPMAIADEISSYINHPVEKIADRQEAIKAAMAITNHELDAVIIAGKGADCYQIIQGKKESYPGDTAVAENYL

SMILES | coupled ADP-release assay, tripeptide made in situ by MurE (PaMurF) | coupled pyruvate kinase/lactate dehydrogenase ADP-release assay, A340 [1]
C[C@@H](N)C(=O)N[C@H](C)C(=O)O [D-Ala–D-Ala] (H-[dA]-[dA]-OH) | MurF ligase with D-Ala–D-Ala as the second substrate | –
CC(=O)N[C@H]1[C@@H](OP(=O)(O)OP(=O)(O)OC[C@H]2O[C@@H](n3ccc(=O)[nH]c3=O)[C@H](O)[C@@H]2O)O[C@H](CO)[C@@H](O)[C@@H]1O[C@H](C)C(=O)N[C@@H](C)C(=O)N[C@H](CCC(=O)O)C(=O)O [UDP-MurNAc-Ala-Glu, Uridine diphospho N-acetylmuramyl-L-alanyl-D-glutamate] | – | lysylation of UDP-MurNAc-Ala-Glu was also assayed with the L-Lys-specific Streptococcus pneumoniae Pn16 MurE
